Experimental findings from patent US8569349B2, “Therapeutic compounds” (Allergan, Inc., priority 2008, dated 2013) are described below.

For this assay, the system named is lashes and adjacent hairs of the eyelids. Description: Observation of lashes and adjacent hairs in glaucoma patients taking bimatoprost in only one eye. The format is in vivo. From the text:
In the course of treating patients having glaucoma, treatment may only be appropriate in one eye. […] The lash appearance on the lids of the treated eyes would have appeared quite attractive if it represented a bilateral phenomenon. As a result of its asymmetric nature, the long lashes on one side could be construed as disturbing from a cosmetic standpoint. A systemic examination was preformed as a result of the asymmetric phenomenon. It soon became apparent that this altered appearance was not an isolated finding. […] Definite differences could be identified to varying degrees in the lashes and adjacent hairs of all patients who were taking the drug on a unilateral basis for longer than 6 months.
The changes in the lashes were apparent on gross inspection in several patients once attention was focused on the issue. In those with light colored hair and lashes, the differences were only seen easily with the aid of the high magnification and lighting capabilities of the slit lamp biomicroscope. In the course of glaucoma follow-up examination, attention is generally immediately focused on the eye itself. As a result of the high power magnification needed only one eye is seen at a time and the eye is seen at a high enough power that the lashes are not in focus. […]

Regarding `CCNC(=O)CCC/C=C\C[C@@H]1[C@@H](/C=C/[C@@H](O)CCc2ccccc2)[C@H](O)C[C@@H]1O` [bimatoprost], where the note is “glaucoma patient treated in one eye”, the “lashes in the treated eye compared with the non-treated eye” value was “longer, thicker, and fuller”. Moreover, the “hair growth in treated versus control areas” value (multiple parameters of hair appearance, many subjects) is reported as “stimulated”.
